Structures are written as SMILES.

The values that follow come from US20140221354A1, “IMIDAZO [1,2-a]PYRIDINE COMPOUNDS FOR USE IN THERAPY” (EMBLEM Technology Transfer GmbH, priority 2011, published 2014).

For this test, the system named is CellSensor® HRE-bla HCT-116 stably transfected reporter cell line. Description: HIF/HRE reporter assay. The class given is cell-based. Conditions: Homo sapiens, inhibition of activated HIF signaling response, hypoxic conditions induced with deferoxamine (DFO), 24 h incubation, blue/green emission ratio, read-out: Evaluation. The protocol: Inhibition of an activated HIF signaling response under chemically-induced hypoxic conditions due to compound treatment was determined using the CellSensor® HRE-bla HCT-116 stably transfected reporter cell line from Invitrogen according to the manufacturer's instructions.
Cells were maintained as described previously and seeded into 384-well, clear-bottom plates (Corning 3712) at 15000 cells/well in 32 μl assay medium (Opti-MEM [Invitrogen], 0.5% FBS, 100 U/ml penicillin, 100 μg/ml streptomycin, 0.1 mM non-essential amino acids [NEAA], 1 mM sodium pyruvate, 5 mM HEPES [pH 7.3]). Following a 2 h incubation period, compounds (4 μl) were subsequently added to the cells at 10× concentrations in 5% DMSO and incubated under normal conditions for 30 min. To induce hypoxic conditions, 4 μl of a 2 mM deferoxamine (DFO) solution was added to the cells followed by 24 h incubation under standard assay conditions (as described). Control wells included wells containing only medium (no cells) and wells treated with 0.5% DMSO instead of compound.
Prior to the readout, the Substrate Loading Solution was prepared as described in the manufacturer's protocol and 10 μl added to each well. Following a further 2 h incubation period at room temperature and in the dark, fluorescence was measured at two wavelengths (blue channel: ex. 409 nm, em. 460 nm; green channel: ex. 409 nm, em. 530 nm) on a PerkinElmer Envision HTS. For the analysis, the average signal of the cell-free wells at 460 nm and 530 nm was first subtracted from the blue and green channel data, respectively. The blue/green emission ratios were then calculated for each well, dividing the background-corrected blue emission values by the background-corrected green emission values. […] values were determined from these ratios using GraphPad Prism (Prism 5, GraphPad software, Inc.).

On to `N#Cc1ccc(-c2nc3ccc(-c4ccccc4)cn3c2CN2CCCNCC2)cn1` [Example 16, 5-(3-((1,4-diazepan-1-yl)methyl)-6-phenylimidazo[1,2-a]pyridin-2-yl)picolinonitrile], for which the EC50 was 0.5 to 1 µM.
With `O=C1CN(Cc2c(-c3ccc([N+](=O)[O-])cc3)nc3ccc(-c4ccccc4)cn23)CCN1` [Example 13, 4-((2-(4-nitrophenyl)-6-phenylimidazo[1,2-a]pyridin-3-yl)methyl)piperazin-2-one] the figure was less than 0.5 µM; with `N#Cc1ccc(-c2nc3ccc(-c4cnco4)cn3c2CN2CCCNCC2)cc1` [Example 39, 4-(3-((1,4-diazepan-1-yl)methyl)-6-(oxazol-5-yl)imidazo[1,2-a]pyridin-2-yl)benzonitrile], greater than 1 µM; with `O=[N+]([O-])c1ccc(-c2nc3ccc(-c4ccccc4)cn3c2CN2CCNCC2)cc1` [Example 1, 2-(4-nitrophenyl)-6-phenyl-3-(piperazin-1-ylmethyl)imidazo[1,2-a]pyridine], less than 0.5 µM.
For `CN1CCCN(Cc2c(-c3ccc(C#N)cc3)nc3ccc(-c4ccccc4)cn23)CC1` [Example 34, 4-(3-((4-methyl-1,4-diazepan-1-yl)methyl)-6-phenylimidazo[1,2-a]pyridin-2-yl)benzonitrile] the value was less than 0.5 µM.
For `c1ccc(-c2ccc3nc(-c4ccncc4)c(CN4CCCNCC4)n3c2)cc1` [Example 11, 3-((1,4-diazepan-1-yl)methyl)-6-phenyl-2-(pyridin-4-yl)imidazo[1,2-a]pyridine] the value was less than 0.5 µM; for `Cc1cc(-c2ccc3nc(-c4ccc(C#N)cc4)c(CN4CCCNCC4)n3c2)ccn1` [Example 28, 4-(3-((1,4-diazepan-1-yl)methyl)-6-(2-methylpyridin-4-yl)imidazo[1,2-a]pyridin-2-yl)benzonitrile], 0.5 to 1 µM; for `N#Cc1ccc(-c2nc3ccc(-c4ccccc4)cn3c2CN2CCNC(=O)C2)s1` [Example 35, 5-(3-((3-oxopiperazin-1-yl)methyl)-6-phenylimidazo[1,2-a]pyridin-2-yl)thiophene-2-carbonitrile], greater than 1 µM.
Consider `NC(=O)c1ccc(-c2nc3ccc(-c4ccccc4)cn3c2CN2CCCNCC2)cc1` [Example 10, 4-(3-((1,4-diazepan-1-yl)methyl)-6-phenylimidazo[1,2-a]pyridin-2-yl)benzamide], for which the EC50 was greater than 1 µM.
For `CN1CCCN(Cc2c(-c3ccc(Cl)cc3)nc3ccc(-c4ccccc4)cn23)CC1` [Example 31, 2-(4-chlorophenyl)-3-((4-methyl-1,4-diazepan-1-yl)methyl)-6-phenylimidazo[1,2-a]pyridine] the value was less than 0.5 µM.
`N#Cc1cccc(-c2nc3ccc(-c4ccccc4)cn3c2CN2CCCNCC2)c1` [Example 22, 3-(3-((1,4-diazepan-1-yl)methyl)-6-phenylimidazo[1,2-a]pyridin-2-yl)benzonitrile]: the EC50 is less than 0.5 µM.
`Cc1ccc(-c2ccc3nc(-c4ccc(C#N)cc4)c(CN4CCCNCC4)n3c2)cc1` [Example 23, 4-(3-((1,4-diazepan-1-yl)methyl)-6-(p-tolyl)imidazo[1,2-a]pyridin-2-yl)benzonitrile]: the EC50 was less than 0.5 µM.
For the compound `CCCN1CCN(Cc2c(-c3ccc([N+](=O)[O-])cc3)nc3ccc(-c4ccccc4)cn23)CC1` [Example 5, 2-(4-nitrophenyl)-6-phenyl-3-((4-propylpiperazin-1-yl)methyl)imidazo[1,2-a]pyridine], the EC50 lay within 0.5 to 1 µM.
For `O=C1CN(Cc2c(-c3ccc(Cl)cc3)nc3ccc(-c4ccccc4)cn23)CCN1` [Example 32, 4-((2-(4-chlorophenyl)-6-phenylimidazo[1,2-a]pyridin-3-yl)methyl)piperazin-2-one] the value was greater than 1 µM; for `N#Cc1ccc(-c2nc3ccc(-c4ccncc4)cn3c2CN2CCCNCC2)cc1` [Example 27, 4-(3-((1,4-diazepan-1-yl)methyl)-6-(pyridin-4-yl)imidazo[1,2-a]pyridin-2-yl)benzonitrile], less than 0.5 µM.
With `N#Cc1ccc(-c2nc3ccc(-c4ccc(Cl)cc4)cn3c2CN2CCCNCC2)cc1` [Example 40, 4-(3-((1,4-diazepan-1-yl)methyl)-6-(4-chlorophenyl)imidazo[1,2-a]pyridin-2-yl)benzonitrile] the figure was less than 0.5 µM.
With `N#Cc1ccc(-c2nc3ccc(-c4ccsc4)cn3c2CN2CCCNCC2)cc1` [Example 44, 4-(3-((1,4-diazepan-1-yl)methyl)-6-(thiophen-3-yl)imidazo[1,2-a]pyridin-2-yl)benzonitrile] the figure was less than 0.5 µM.
`N#Cc1ccc(-c2nc3ccc(-c4ccc(C(N)=O)cc4)cn3c2CN2CCCNCC2)cc1` [Example 42, 4-(3-((1,4-diazepan-1-yl)methyl)-2-(4-cyanophenyl)imidazo[1,2-a]pyridin-6-yl)benzamide]: the EC50 is greater than 1 µM.
With `COc1ccc(-c2nc3ccc(-c4ccccc4)cn3c2CN2CCNC(=O)C2)cc1` [Example 30, 4-((2-(4-methoxyphenyl)-6-phenylimidazo[1,2-a]pyridin-3-yl)methyl)piperazin-2-one] the figure was greater than 1 µM; with `CN1CCCN(Cc2c(-c3ccc([N+](=O)[O-])cc3)nc3ccc(-c4ccccc4)cn23)CC1` [Example 12, 3-((4-methyl-1,4-diazepan-1-yl)methyl)-2-(4-nitrophenyl)-6-phenylimidazo[1,2-a]pyridine], less than 0.5 µM.
Regarding `N#Cc1ccc(-c2nc3ccc(-c4cncnc4)cn3c2CN2CCCNCC2)cc1` [Example 26, 4-(3-((1,4-diazepan-1-yl)methyl)-6-(pyrimidin-5-yl)imidazo[1,2-a]pyridin-2-yl)benzonitrile], the EC50 was greater than 1 µM.
On to `Cn1cccc1-c1ccc2nc(-c3ccc(C#N)cc3)c(CN3CCCNCC3)n2c1` [Example 38, 4-(3-((1,4-diazepan-1-yl)methyl)-6-(1-methyl-1H-pyrrol-2-yl)imidazo[1,2-a]pyridin-2-yl)benzonitrile], for which the EC50 fell in the range of 0.5 to 1 µM.
With `c1ccc(-c2ccc3nc(-c4ccccc4)c(CN4CCCNCC4)n3c2)cc1` [Example 19, 3-((1,4-diazepan-1-yl)methyl)-2,6-diphenylimidazo[1,2-a]pyridine] the figure was 0.5 to 1 µM; with `Clc1ccc(-c2nc3ccc(-c4ccccc4)cn3c2CN2CCCNCC2)cc1` [Example 14, 3-((1,4-diazepan-1-yl)methyl)-2-(4-chlorophenyl)-6-phenylimidazo[1,2-a]pyridine], less than 0.5 µM.
With `Cc1ccc(-c2nc3ccc(-c4ccccc4)cn3c2CN2CCCNCC2)cc1` [Example 17, 3-((1,4-diazepan-1-yl)methyl)-6-phenyl-2-(p-tolyl)imidazo[1,2-a]pyridine] the figure was less than 0.5 µM.
For `COc1ccc(-c2ccc3nc(-c4ccc(C#N)cc4)c(CN4CCCNCC4)n3c2)cc1` [Example 41, 4-(3-((1,4-diazepan-1-yl)methyl)-6-(4-methoxyphenyl)imidazo[1,2-a]pyridin-2-yl)benzonitrile] the value was less than 0.5 µM.
In the case of `CN1CCCN(Cc2c(-c3ccc(C#N)s3)nc3ccc(-c4ccccc4)cn23)CC1` [Example 36, 5-(3-((4-methyl-1,4-diazepan-1-yl)methyl)-6-phenylimidazo[1,2-a]pyridin-2-yl)thiophene-2-carbonitrile], the EC50 was less than 0.5 µM.
With `CCN1CCN(Cc2c(-c3ccc([N+](=O)[O-])cc3)nc3ccc(-c4ccccc4)cn23)CC1` [Example 6, 3-((4-ethylpiperazin-1-yl)methyl)-2-(4-nitrophenyl)-6-phenylimidazo[1,2-a]pyridine], the EC50 is 0.5 to 1 µM.
With `CS(=O)(=O)c1ccc(-c2nc3ccc(-c4ccccc4)cn3c2CN2CCCNCC2)cc1` [Example 8, 3-((1,4-diazepan-1-yl)methyl)-2-(4-(methylsulfonyl)phenyl)-6-phenylimidazo[1,2-a]pyridine] the figure was greater than 1 µM; with `N#Cc1ccc(-c2ccc3nc(-c4ccc(C#N)cc4)c(CN4CCCNCC4)n3c2)cc1` [Example 43, 4,4′-(3-((1,4-diazepan-1-yl)methyl)imidazo[1,2-a]pyridine-2,6-diyl)dibenzonitrile], less than 0.5 µM; with `N#Cc1ccc(-c2nc3ccc(-c4ccccc4)cn3c2CN2CCCNCC2)s1` [Example 21, 5-(3-((1,4-diazepan-1-yl)methyl)-6-phenylimidazo[1,2-a]pyridin-2-yl)thiophene-2-carbonitrile], less than 0.5 µM.
Regarding `N#Cc1ccc(-c2nc3ccc(-c4cccnc4)cn3c2CN2CCCNCC2)cc1` [Example 29, 4-(3-((1,4-diazepan-1-yl)methyl)-6-(pyridin-3-yl)imidazo[1,2-a]pyridin-2-yl)benzonitrile], the EC50 is greater than 1 µM.
`CC(=O)N1CCN(Cc2c(-c3cccc([N+](=O)[O-])c3)nc3ccc(-c4ccccc4)cn23)CC1` [Example 2, 1-(4-((2-(3-nitrophenyl)-6-phenylimidazo[1,2-a]pyridin-3-yl)methyl)piperazin-1-yl)ethanone]: the EC50 was greater than 1 µM.
